Reference: ChEMBL document CHEMBL1614629, “Extrapolation of human pharmacokinetic parameters from rat, dog, and monkey data: Molecular properties associated with extrapolative success or failure” (J Pharm Sci, 2005)

Columns and labels:
[1] = Clearance in monkey after iv administration; format: ADME, organism-based; details: macaca, in vivo
[2] = Volume of distribution at steady state in human after iv administration; format: ADME, organism-based; details: in vivo, read-out: Vdss
[3] = Clearance in human after iv administration; format: ADME, organism-based; details: in vivo
[4] = Clearance in rat after iv administration; format: ADME, organism-based; details: in vivo
[5] = Volume of distribution at steady state in monkey after iv administration; format: ADME, organism-based; details: macaca, in vivo, read-out: Vdss
[6] = Clearance in dog after iv administration; format: ADME, organism-based, Canis lupus familiaris; details: in vivo
[7] = Volume of distribution at steady state in dog after iv administration; format: ADME, organism-based, Canis lupus familiaris; details: in vivo, read-out: Vdss
[8] = Volume of distribution at steady state in rat after iv administration; format: ADME, organism-based; details: in vivo

| Compound | clearance [1] | Vd [2] | clearance [3] | clearance [4] | Vd [5] | clearance [6] | Vd [7] | Vdss [8] |
| --- | --- | --- | --- | --- | --- | --- | --- | --- |
| CO/N=C(\C(=O)N[C@@H]1C(=O)N2C(C(=O)O)=CCS[C@H]12)c1csc(N)n1 [CEFTIZOXIME] | 5.9 mL/min/kg | 0.23 L/kg | 1.8 mL/min/kg | 19 mL/min/kg | 0.12 L/kg | 3.3 mL/min/kg | 0.1 L/kg | 0.18 L/kg |
| CC(=O)CC(c1ccccc1)c1c(O)c2ccccc2oc1=O (configuration not stated) [WARFARIN] | 0.13 mL/min/kg | 0.11 L/kg | 0.04 mL/min/kg | 0.36 mL/min/kg | 0.11 L/kg | 0.3 mL/min/kg | 0.28 L/kg | 0.22 L/kg |
| Cc1cc(=O)n(-c2ccccc2)n1C [ANTIPYRINE] | 4.4 mL/min/kg | 0.87 L/kg | 0.66 mL/min/kg | 10 mL/min/kg | 0.74 L/kg | 5.5 mL/min/kg | 0.62 L/kg | 0.97 L/kg |
| CC(C)n1c(/C=C/C(O)CC(O)CC(=O)O)c(-c2ccc(F)cc2)c2ccccc21 (configuration not stated) [FLUVASTATIN] | – | 0.42 L/kg | – | – | 3.7 L/kg | – | 0.7 L/kg | 1 L/kg |
| CO/N=C(\C(=O)N[C@@H]1C(=O)N2C(C(=O)[O-])=C(C[n+]3ccn4ncccc43)CS[C@H]12)c1nsc(N)n1 [CEFOZOPRAN] | 1.9 mL/min/kg | 0.27 L/kg | 1.5 mL/min/kg | 9.4 mL/min/kg | 0.2 L/kg | 3 mL/min/kg | 0.21 L/kg | 0.2 L/kg |
| O=c1ccc2ccccc2o1 [COUMARIN] | 34 mL/min/kg | 2.2 L/kg | 17 mL/min/kg | 20 mL/min/kg | 4.5 L/kg | 22 mL/min/kg | 6.5 L/kg | 1.3 L/kg |
| O=C(O)Cc1ccccc1Nc1c(Cl)cccc1Cl [DICLOFENAC] | 8.7 mL/min/kg | 0.17 L/kg | 4.2 mL/min/kg | 9.4 mL/min/kg | 0.17 L/kg | 1.6 mL/min/kg | 0.23 L/kg | 0.75 L/kg |
| Cc1cn([C@H]2C[C@H](N=[N+]=[N-])[C@@H](CO)O2)c(=O)[nH]c1=O [ZIDOVUDINE] | 15 mL/min/kg | – | 24 mL/min/kg | 46 mL/min/kg | 1 L/kg | 14 mL/min/kg | 1 L/kg | – |
| O=P1(N(CCCl)CCCl)NCCCO1 (configuration not stated) [CYCLOPHOSPHAMIDE ANHYDROUS] | 20 mL/min/kg | 0.7 L/kg | 2.6 mL/min/kg | 12 mL/min/kg | 1.3 L/kg | 20 mL/min/kg | 0.7 L/kg | 0.8 L/kg |
| NC(=O)c1csc([C@@H]2O[C@H](CO)[C@@H](O)[C@H]2O)n1 [TIAZOFURIN] | – | 0.9 L/kg | – | – | 2 L/kg | – | 0.9 L/kg | 2.5 L/kg |
| C[C@@H](O)[C@H]1C(=O)N2C(C(=O)O)=C(S[C@@H]3CN[C@H](C(=O)N(C)C)C3)[C@H](C)[C@H]12 [MEROPENEM] | 7 mL/min/kg | 0.3 L/kg | 4 mL/min/kg | 47 mL/min/kg | 0.3 L/kg | 4 mL/min/kg | 0.25 L/kg | 0.3 L/kg |
| CC(C)(C)S(=O)(=O)C[C@@H](Cc1ccccc1)C(=O)N[C@@H](Cc1cnc[nH]1)C(=O)N[C@@H](CC1CCCCC1)[C@@H](O)[C@@H](O)C1CC1 | 20 mL/min/kg | 0.84 L/kg | 10 mL/min/kg | – | 1.7 L/kg | 25 mL/min/kg | 1.5 L/kg | 4.4 L/kg |
| CC(C)N(CCC(C(N)=O)(c1ccccc1)c1ccccn1)C(C)C (configuration not stated) [DISOPYRAMIDE] | 19 mL/min/kg | 0.78 L/kg | 2.4 mL/min/kg | 34 mL/min/kg | 2 L/kg | 29 mL/min/kg | 2.3 L/kg | 6.2 L/kg |
| C[C@]12C=CC(=O)C=C1CC[C@@H]1[C@@H]2C(=O)C[C@@]2(C)[C@H]1CC[C@]2(O)C(=O)CO [PREDNISONE] | 13 mL/min/kg | – | 3.6 mL/min/kg | 163 mL/min/kg | 1.6 L/kg | 27 mL/min/kg | 2.1 L/kg | 1.4 L/kg |
| CC1(C)O[C@@H]2C[C@H]3[C@@H]4C[C@H](F)C5=CC(=O)C=C[C@]5(C)[C@H]4[C@@H](O)C[C@]3(C)[C@]2(C(=O)CO)O1 [FLUNISOLIDE] | 19 mL/min/kg | – | 12 mL/min/kg | 8.8 mL/min/kg | 4 L/kg | 12.9 mL/min/kg | 3.7 L/kg | 3 L/kg |
| COC(=O)C1=C(C)NC(C)=C(C(=O)OCCN(C)Cc2ccccc2)C1c1cccc([N+](=O)[O-])c1 (configuration not stated) [NICARDIPINE] | – | 0.64 L/kg | – | – | 1.9 L/kg | – | 1.3 L/kg | 1.3 L/kg |
| Cn1cc(/C=C2/C(=O)N3C(C(=O)O)=CS[C@H]23)nn1 | – | 0.28 L/kg | – | – | 0.27 L/kg | – | 0.32 L/kg | 1.3 L/kg |
| CN(Cc1cnc2nc(N)nc(N)c2n1)c1ccc(C(=O)N[C@@H](CCC(=O)O)C(=O)O)cc1 [METHOTREXATE] | 8 mL/min/kg | 0.67 L/kg | 2.5 mL/min/kg | 12 mL/min/kg | 1.2 L/kg | 1.2 mL/min/kg | – | 0.4 L/kg |
| COC(=O)[C@H]1[C@@H](OC(=O)c2ccccc2)C[C@@H]2CC[C@H]1N2C [COCAINE] | 64 mL/min/kg | – | 32 mL/min/kg | 260 mL/min/kg | 7.4 L/kg | 102 mL/min/kg | 3.8 L/kg | 16 L/kg |
| Cn1c(=O)c2c(ncn2C)n(C)c1=O [CAFFEINE] | 3.1 mL/min/kg | 0.73 L/kg | 2 mL/min/kg | – | 0.83 L/kg | 2.1 mL/min/kg | 0.76 L/kg | 0.92 L/kg |
| O=C(c1ccccc1)c1ccc2n1CCC2C(=O)O (configuration not stated) [KETOROLAC] | 0.6 mL/min/kg | – | – | 3.6 mL/min/kg | 0.09 L/kg | 1.3 mL/min/kg | 0.33 L/kg | 0.56 L/kg |
| CO[C@@]1(NC(=O)CSC(F)F)C(=O)N2C(C(=O)O)=C(CSc3nnnn3CCO)CO[C@@H]21 [FLOMOXEF] | – | 0.52 L/kg | – | – | 0.3 L/kg | – | 0.32 L/kg | 0.23 L/kg |
| CN1C(C(=O)Nc2nccs2)=C(O)c2ccccc2S1(=O)=O [SUDOXICAM] | – | 0.2 L/kg | – | – | 0.2 L/kg | – | 0.2 L/kg | 0.2 L/kg |
| CN1CCC[C@H]1c1cccnc1 [NICOTINE] | 14 mL/min/kg | – | 19 mL/min/kg | 66 mL/min/kg | 1.5 L/kg | 42 mL/min/kg | 3.3 L/kg | 4.7 L/kg |
| N=C(N)N1CCC[C@@H](CNC(=O)C[C@H](NS(=O)(=O)c2ccc3ccccc3c2)C(=O)N(CC(=O)O)C2CC2)C1 [NAPSAGATRAN ANHYDROUS] | – | 0.32 L/kg | – | – | 0.26 L/kg | – | 0.69 L/kg | 0.62 L/kg |
| COCCc1ccc(OCC(O)CNC(C)C)cc1 (configuration not stated) [METOPROLOL] | 30 mL/min/kg | – | 15 mL/min/kg | 185 mL/min/kg | 3 L/kg | 23 mL/min/kg | 4.5 L/kg | 7 L/kg |
| CC(C)NCC(O)COc1cccc2ccccc12 (configuration not stated) [PROPRANOLOL] | 14 mL/min/kg | 3.6 L/kg | 15 mL/min/kg | – | 0.6 L/kg | – | 1.7 L/kg | 5.3 L/kg |
| N=C(N)c1ccc(C(=O)N[C@@H](Cc2ccc(O)cc2)C(=O)N2CCC(OCC(=O)O)CC2)cc1 [LAMIFIBAN] | – | 0.29 L/kg | – | – | 0.29 L/kg | – | 0.75 L/kg | 0.24 L/kg |
| C[C@@H](O)[C@H]1C(=O)N2C(C(=O)O)=C(SCCOC(N)=O)S[C@H]12 [Sch-34343] | – | 0.34 L/kg | – | – | 0.17 L/kg | – | 0.22 L/kg | 0.17 L/kg |
